The text below walks through data of patent publication US20040110963A1, “Novel hydrazones” (priority 2001, published 2004).

≈ marks a conversion by molar mass, not a printed value.

For assay [1], the target named is enzyme I of the bacterial phosphotransferase system (PTS) (Escherichia coli, UniProt P08839). Briefly: Assay for Enzyme I dependent PEP: peptide phosphotransferase activity (LDH-coupled, NADH read-out at 340 nm). Particulars: enzyme I 0.75 μM, 0.8 mM PEP, pH 7.5; read-out: Inhibition of PTS (IC50 in μM). It counts as biochemical. An excerpt: The determination of activity of a compound of the present invention in the PTS may be summarized as follows:
Assay for Enzyme I Dependent PEP:
Peptide Phosphotransferase Activity. [formula]
To find inhibitors of Enzyme I of the PTS by high throughput screening, an in vitro assay based on spectrophotometric read out at 340 nm has been set up. The assay comprises of three major components, purified enzyme I in catalytic amounts, Phosphoenol Pyruvate (PEP) as the phosphoryl donor substrate and purified HPr as the phosphoryl acceptor substrate.
The assay couples the formation of pyruvate formed from PEP to lactate, catalyzed by lactate dehydrogenase. The disappearance of NADH, cofactor required by lactate dehydrogenase, is determined spectrophotometerically at 340 nm. The assay is done in a U-shaped microtiter plate format, and quantitation is done using microplate absorbance reader.
100 μl reaction mixture contained 0.8 mM PEP, 0.2 mM NADH, 3 μg lactate dehydrogenase (Boehringer Mannheim), 50 mM KPi pH=7.5, 2.5 mM dithiothreitol, 2.5 mM NaF, 5 mM MgCI2, and between 50 and 100 μM of the compound. The reaction is started by the addition of enzyme I (final concentration 0.75 μM). In a control experiment the compound is replaced by DMSO.

For assay [2], the system named is Escherichia coli DC2. Briefly: In vitro antibacterial activity (MIC, NCCLS M7-A5 dilution susceptibility test). The assay is classed as cell-based. Particulars: for MIC: read-out: Minimum Inhibitory Concentration (MIC) Escherichia coli DC2. On the procedure:
(§1) Antimicrobial susceptibility testing was performed in accordance with the National Committee for Clinical Laboratory Standards (NCCLS) procedure [M7-A5, 2001: Methods for Dilution Antimicrobial Susceptibility Tests for Bacteria That Grow Aerobically; Approved Standard-Fifth Edition American National Standard].

Assay [3] deals with Staphylococcus aureus ATCC25923. The description is as above. Particulars: for MIC: read-out: Minimum Inhibitory Concentration (MIC) Staphylococcus aureus ATCC25923. The assay is classed as cell-based. On the procedure: as §1

Regarding “4-chloro-N′-(2-hydroxy-3-chloro-benzylidene)-benzohydrazide [Example 36]”, the 50% inhibitory concentration (IC50) (in general, the midpoint of a concentration-inhibition curve) in assay [1] turned out to be 100 µM.
With `O=C(NN=Cc1cc(O)ccc1O)c1ccccc1` [Example 1, N′-(2,5-Dihydroxy-benzylidene)-benzohydrazide], the figures for the MIC in assay [2] and in assay [3] were 128 µg/mL (≈ 499 µM) and 64 µg/mL (≈ 250 µM), respectively. For the same compound, the half-maximal inhibitory concentration (IC50) in assay [1] was determined as 15 µM.
Consider `O=C(Cc1c[nH]c2ccccc12)NN=Cc1ccccc1O` [Example 2, N′-(2-Hydroxy-benzylidene)-2-(1H-indol-3-yl)-acetohydrazide], for which, in assay [1], the concentration for half-maximal inhibition (IC50) worked out at 50 µM.
Still for that read-out and setting: as for `O=C(NN=Cc1cc(O)ccc1O)c1cccc2ccccc12` [Example 3, N′-(2,5-Dihydroxy-benzylidene)-naphthalene-1-carbohydrazide], the figure is 6 µM.
Regarding `COc1cc(C(=O)NN=Cc2ccc(O)c(O)c2O)cc(OC)c1OC` [Example 4, 3,4,5-Trimethoxy-N′-(2,3,4-trihydroxy-benzylidene)-benzohydrazide], the MIC in assay [2] and in assay [3] was 128 µg/mL (≈ 353 µM) in each case. Moreover, the IC50 in assay [1] came to 15 µM.
As for `Nc1ccc(Cl)cc1C(=O)NN=Cc1ccccc1O` [Example 5, 2-Amino-5-chloro-N′-(2-hydroxy-benzylidene)-benzohydrazide], in assay [1], the half-inhibitory concentration (IC50) was determined as 6 µM.
For `O=C(NN=Cc1ccc(O)cc1O)c1cccc(C(F)(F)F)c1` [Example 6, 3-Trifluoromethyl-N′-(2,4-dihydroxy-benzylidene)-benzohydrazide], the MIC was 32 µg/mL (≈ 98.7 µM) in assay [2] and above 128 µg/mL in assay [3]. In addition, in assay [1], the 50% inhibitory concentration (IC50) was determined as 10 µM.
Regarding `COc1cccc(C(=O)NN=C(C)c2ccccc2O)c1` [Example 7, 3-Methoxy-N′-[1-(2-hydroxy-phenyl)-ethylidene]-benzohydrazide], the IC50 in assay [1] was determined as 8 µM.
The same measure, in the same setting: as for `COc1cccc(C(=O)NN=Cc2cc(O)ccc2O)c1` [Example 8, 3-Methoxy-N′-(2,5-dihydroxy-benzylidene)-benzohydrazide], the figure is 15 µM.
Turning to `O=C(NN=Cc1ccc(O)c(O)c1O)c1ccc(Cl)c(Cl)c1` [Example 9, 3,4-Dichloro-N′-(2,3,4-trihydroxy-benzylidene)-benzohydrazide], the MIC worked out at 32 µg/mL (≈ 93.8 µM) in assay [2] and 8 µg/mL (≈ 23.5 µM) in assay [3]. In addition, in assay [1], the concentration for half-maximal inhibition (IC50) came to 75 µM.
For `O=C(NN=Cc1cc(O)ccc1O)c1ccc(Cl)cc1` [Example 10, 4-Chloro-N′-(2,5-dihydroxy-benzylidene)-benzohydrazide], in that order: above 128 µg/mL, 128 µg/mL (≈ 440 µM) and 8 µM.
Consider `O=C(NN=Cc1cc(O)ccc1O)c1ccc(O)cc1` [Example 11, 4-Hydroxy-N′-(2,5-dihydroxy-benzylidene)-benzohydrazide], for which, in assay [1], the 50% inhibitory concentration (IC50) is 0.5 µM.
Still for that read-out and setting: as for `O=C(NN=Cc1cc(O)ccc1O)c1ccc(Cl)c(Cl)c1` [Example 12, 3,4-Dichloro-N′-(2,5-dihydroxy-benzylidene)-benzohydrazide], the figure is 0.7 µM; as for `O=C(NN=Cc1cc(O)ccc1O)c1cccc(Cl)c1` [Example 13, 3-Chloro-N′-(2,5-dihydroxy-benzylidene)-benzohydrazide], 0.7 µM.
Still for that read-out and setting: as for `CC(=NNC(=O)c1ccccc1)c1cc(O)ccc1O` [Example 15, N′-[1-(2,5-Dihydroxy-phenyl)-ethylidene]-benzohydrazide], the figure is 6 µM.
Regarding `COc1cc(C(=O)NN=Cc2cc(O)ccc2O)ccc1O` [Example 16, N′-(2,5-Dihydroxy-benzylidene)-4-hydroxy-3-methoxy-benzohydrazide], the concentration for half-maximal inhibition (IC50) in assay [1] is 4 µM.
Take `Cc1ccc(O)c(C=NNC(=O)c2ccccc2)c1` [Example 17, N′-(2-Hydroxy-5-methyl-benzylidene)-benzohydrazide]: in assay [1], the IC50 is 6 µM.
On the same count and under the same terms, as for `CNc1ccccc1C(=O)NN=Cc1cc(Cl)ccc1O` [Example 18, 2-Methylamino-N′-(5-chloro-2-hydroxy-benzylidene)-benzohydrazide], the figure is 4 µM.
With `CNc1ccccc1C(=O)NN=Cc1cc(O)ccc1O` [Example 19, 2-Methylamino-N′-(2,5-dihydroxy-benzylidene)-benzohydrazide], the half-maximal inhibitory concentration (IC50) in assay [1] turned out to be 2 µM.
Still for that read-out and setting: as for `Cc1cccc(C(=O)NN=Cc2cc(Cl)ccc2O)c1` [Example 20, 3-Methyl-N′-(5-chloro-2-hydroxy-benzylidene)-benzohydrazide], the figure is 4 µM; as for `CNc1ccccc1C(=O)NN=C(C)c1ccccc1O` [Example 22, 2-methylamino-N′-[1-(2-hydroxy-phenyl)-ethylidene]-benzohydrazide], 2 µM; as for `CC(=O)Nc1ccccc1C(C)=NNC(=O)c1ccccc1` [Example 23, N-[2-[1-(2-Benzoyl-hydrazono)-ethyl]-phenyl]-acetamide], 250 µM.
Still for that read-out and setting: as for `CC(=NNC(=O)c1ccc(Cl)cc1)c1ccccc1N` [Example 24, 4-Chloro-N′-[1-(2-amino-phenyl)-ethylidene]-benzohydrazide], the figure is 0.8 µM.
Still for that read-out and setting: as for `COc1cccc(C(=O)NN=C(C)c2ccccc2N)c1` [Example 25, 3-Methoxy-N′-[1-(2-Amino-phenyl)-ethylidene]-benzohydrazide], the figure is 20 µM; as for `O=C(NN=Cc1cccc(O)c1O)c1ccccc1` [Example 26, N′-(2,3-Dihydroxy-benzylidene)-benzohydrazide], 50 µM; as for `COc1cccc(C(=O)NN=Cc2ccccc2O)c1` [Example 27, 3-Methoxy-N′-(2-hydroxy-benzylidene)-benzohydrazide], 7 µM.
With `O=C(NN=Cc1ccc(O)c(O)c1O)c1ccccc1` [Example 28, N′-(2,3,4-Trihydroxy-benzylidene)-benzohydrazide], the concentration for half-maximal inhibition (IC50) in assay [1] came out at 3 µM.
`O=C(NN=Cc1ccccc1O)c1ccc(Br)cc1` [Example 31, 4-Bromo-N′-(2-hydroxy-benzylidene)-benzohydrazide]: the IC50 in assay [1] was 75 µM.
On the same count and under the same terms, as for `O=C(NN=Cc1ccccc1O)c1cccc(C(F)(F)F)c1` [Example 32, 3-Trifluoromethyl-N′-(2-hydroxy-benzylidene)-benzohydrazide], the figure is 7 µM; as for `Cc1cccc(C(=O)NN=Cc2cc(O)ccc2O)c1` [Example 33, 3-Methyl-N′-(2,5-dihydroxy-benzylidene)-benzohydrazide], 2 µM.
Consider `O=C(NN=Cc1cc(O)ccc1O)c1cccc(C(F)(F)F)c1` [Example 34, 3-Trifluoromethyl-N′-(2,5-dihydroxy-benzylidene)-benzohydrazide], for which the IC50 in assay [1] came out at 15 µM.
Same read-out and setting: as for `CC(=NNC(=O)c1ccc(O)cc1)c1cc(O)ccc1O` [Example 35, 4-Hydroxy-N′-[1-(2,5-dihydroxy-phenyl)-ethylidene]-benzohydrazide], the figure is 1.75 µM; as for `O=C(NN=Cc1ccc(O)cc1O)c1ccc(Cl)cc1` [Example 37, 4-Chloro-N′-(2,4-dihydroxy-benzylidene)-benzohydrazide], 20 µM.
On the same count and under the same terms, as for `O=C(NN=Cc1cc(Cl)ccc1O)c1cccc(Cl)c1` [Example 38, 3-Chloro-N′-(2-hydroxy-5-chloro-benzylidene)-benzohydrazide], the figure is 75 µM.
With `O=C(NN=Cc1cc(O)c(O)cc1O)c1ccc(Cl)cc1` [Example 47, 4-Chloro-N′-(2,4,5-trihydroxy-benzylidene)-benzohydrazide], the MIC in assay [2] was found to be 64 µg/mL (≈ 209 µM); in assay [3], 8 µg/mL (≈ 26.1 µM).
For `O=C(NN=Cc1cc(Cl)cc(Cl)c1O)c1ccccc1` [Example 48, N′-(2-Hydroxy-3,5-dichloro-benzylidene)-benzohydrazide] the same measures were above 128 µg/mL and 128 µg/mL (≈ 414 µM).
For `O=C(NN=Cc1ccc(O)c(O)c1O)c1cccc(Cl)c1` [Example 49, 3-Chloro-N′-(2,3,4-trihydroxy-benzylidene)-benzohydrazide] the same measures were 64 µg/mL (≈ 209 µM) and 16 µg/mL (≈ 52.2 µM).
For `O=C(NN=Cc1cc(O)c(O)cc1O)c1cccc(C(F)(F)F)c1` [Example 50, 3-Trifluoromethyl-N′-(2,4,5-trihydroxy-benzylidene)-benzohydrazide], in that order: above 128 µg/mL and 32 µg/mL (≈ 94 µM).
Take `O=C(NN=Cc1ccc(O)c(O)c1O)c1cccc(C(F)(F)F)c1` [Example 51, 3-Trifluoromethyl-N′-(2,3,4-trihydroxy-benzylidene)-benzohydrazide]: the MIC in assay [2] amounted to 64 µg/mL (≈ 188 µM); in assay [3], 8 µg/mL (≈ 23.5 µM).
Regarding `CC(=NNC(=O)c1ccc(Cl)c(Cl)c1)c1ccc(O)c(O)c1O` [Example 52, 3,4-Dichloro-N′-[1-(2,3,4-dihydroxy-phenyl)-ethylidene]-benzohydrazide], the “Minimum Inhibitory Concentration (MIC) Escherichia coli DC2” value in assay [2] turned out to be 64 micrograms/ml. Also, the “Minimum Inhibitory Concentration (MIC) Staphylococcus aureus ATCC25923” value in assay [3] was determined as 4 micrograms/ml.
In the case of `CN(N=Cc1ccc(O)c(O)c1O)C(=O)c1ccc(Cl)c(Cl)c1` [Example 53, 3,4-Dichloro-N-methyl-N′-(2,3,4-trihydroxy-benzylidene)-benzohydrazide], the values for the MIC in assay [2] and in assay [3] were above 128 µg/mL and 128 µg/mL (≈ 360 µM), respectively.
